# Test results taken from US20020002171A1, “Materials and methods for killing nematodes and nematode eggs” (priority 2000, published 2002).
# System: Caenorhabditis elegans
# Assay: C. elegans L1 nematicidal dose response in 96-well plates, 5 day visual score (Example 2; same procedure for Example 7, Table 3)
# Type: in vivo
# Design: key to 5 Day Visual Score V1 / 5 Day Visual Score V2 / 5 Day Visual Score V3 / 5 Day Visual Score V4 / 5 Day Visual Score V6 / 5 Day Visual Score V5 / Initial HTS Run Visual Score / Follow-up HTS Run Visual Score: Dead: only stiff L1s (no movement); Dead (L4): worms are dead, but at a later larval stage; majority of worms are L1 (based on size) worms move when plate is tapped; majority of worms are L2 (based on size); majority of worms are L3 (based on size); majority of worms are L4 (based on size); AD: majority of worms are adult; #AD: 5 adult worms or less; B!: sterile (0-25 progeny); B: low broodsize (25-100 progeny); ˜B: moderate broodsize (100-250 progeny); <: reduced broodsize (250-500 progeny); OK: no effect (˜1000+ progeny)
# Conditions: Follow-up HTS run
# Protocol: Caenorhabditis elegans adults were grown on Nematode Growth Medium (NGM) until they produced eggs, then the adults were removed.
# The eggs were allowed to hatch, and the L1 larvae collected. See The Nematode Caenorhabditis elegans (1988) Cold Spring Harbor Laboratory Press. Using a Matrix Programmable Pipette, the L1s were distributed into 96-well tissue culture plates, 20 L1 in 50 μl NGM per well. Antibiotic/Antimyoticwas added to each well, and 1% by weight E. coli strain HB101. The subject anthelmintic compounds were stored at 5 mM in 100% DMSO. 0.7 μl of compounds 1-31 were added to the left-most column of wells to yield a final concentration of 70 μM in 1.4% DMSO, with 1.4% DMSO only as the control. The compounds were then subjected to 5 more 3-fold dilutions from left to right to yield 6 column concentrations of 70 μM, 23.3 μM, 7.8 μM, 2.6 μM, 0.9 μM, and 0.3 μM. Plates were stored in air-tight Rubbermaid plastic boxes at 20° C. The nematodes had cleared all control wells by day 4, and nematode viability was scored by visual examination under a 100× dissecting microsope on day 5. A visual viability scoring system was used as follows:
# Column V1 has a compound concentration of 70 μM with sequential 3-fold dilutions reported in columns V2, V3, V4, V5, and V6, respectively, such that the V6 concentration was 0.3 μM.
# The nematicidal activity of anthelmintic Compositions 48-168 were determined in accordance with the procedure outlined in Example 2.
SMILES,Follow-up HTS Run % Run,Follow-up HTS Run Visual Score,Follow-up HTS Run mOD
CC(O)CN(CC(C)O)c1nc(NCc2ccc(C(F)(F)F)cc2)ns1 (centres unmarked) [compound 252],100%,L2 - Dead L3,161 mOD
COc1ccc(CCN(C)c2nc(NCc3ccc(C(F)(F)F)cc3)ns2)cc1OC [compound 317],111%,L2,179 mOD
C=CCN(CC=C)c1nc(N2CCN(c3c(C)cccc3C)CC2)ns1 [compound 232],68%,Dead/1AD/B,109 mOD

# Same assay, conditions: Initial HTS run
SMILES,Initial HTS Run % Run,Initial HTS Run Visual Score,Initial HTS Run mOD
CC(O)CN(CC(C)O)c1nc(NCc2ccc(C(F)(F)F)cc2)ns1 (centres unmarked) [compound 252],100%,Dead(L3),110 mOD
COc1ccc(CCN(C)c2nc(NCc3ccc(C(F)(F)F)cc3)ns2)cc1OC [compound 317],108%,,119 mOD
C=CCN(CC=C)c1nc(N2CCN(c3c(C)cccc3C)CC2)ns1 [compound 232],120%,2AD/B,132 mOD

# Same assay, conditions: dose response, dilution V1, 5 day
row,SMILES,5 Day Visual Score V1
1,COc1ccc(CCN(C)c2nc(NCc3ccc(C(F)(F)F)cc3)ns2)cc1OC [compound 317],Dead

# Same assay, conditions: dose response, dilution V1, day 5
row,SMILES,5 Day Visual Score V1
1,CC(O)CN(CC(C)O)c1nc(NCc2ccc(C(F)(F)F)cc2)ns1 (centres unmarked) [compound 252],Dead(L3)
2,C=CCN(CC=C)c1nc(N2CCN(c3c(C)cccc3C)CC2)ns1 [compound 232],Dead

# Same assay, conditions: dose response, dilution V2, day 5
row,SMILES,5 Day Visual Score V2
1,CC(O)CN(CC(C)O)c1nc(NCc2ccc(C(F)(F)F)cc2)ns1 (centres unmarked) [compound 252],Dead(L3)

# Same assay, conditions: dose response, dilution V3, 5 day
row,SMILES,5 Day Visual Score V3
1,COc1ccc(CCN(C)c2nc(NCc3ccc(C(F)(F)F)cc3)ns2)cc1OC [compound 317],OK (no effect (˜1000+ progeny))

# Same assay, conditions: dose response, dilution V3, day 5
row,SMILES,5 Day Visual Score V3
1,C=CCN(CC=C)c1nc(N2CCN(c3c(C)cccc3C)CC2)ns1 [compound 232],OK (no effect (˜1000+ progeny))

# Same assay, conditions: dose response, dilution V4, 5 day
row,SMILES,5 Day Visual Score V4
1,COc1ccc(CCN(C)c2nc(NCc3ccc(C(F)(F)F)cc3)ns2)cc1OC [compound 317],OK (no effect (˜1000+ progeny))

# Same assay, conditions: dose response, dilution V4, day 5
row,SMILES,5 Day Visual Score V4
1,CC(O)CN(CC(C)O)c1nc(NCc2ccc(C(F)(F)F)cc2)ns1 (centres unmarked) [compound 252],< (reduced broodsize (250-500 progeny))
2,C=CCN(CC=C)c1nc(N2CCN(c3c(C)cccc3C)CC2)ns1 [compound 232],OK (no effect (˜1000+ progeny))

# Same assay, conditions: dose response, dilution V5, 5 day
row,SMILES,5 Day Visual Score V5
1,COc1ccc(CCN(C)c2nc(NCc3ccc(C(F)(F)F)cc3)ns2)cc1OC [compound 317],OK (no effect (˜1000+ progeny))

# Same assay, conditions: dose response, dilution V5, day 5
row,SMILES,5 Day Visual Score V5
1,CC(O)CN(CC(C)O)c1nc(NCc2ccc(C(F)(F)F)cc2)ns1 (centres unmarked) [compound 252],< (reduced broodsize (250-500 progeny))
2,C=CCN(CC=C)c1nc(N2CCN(c3c(C)cccc3C)CC2)ns1 [compound 232],OK (no effect (˜1000+ progeny))

# Same assay, conditions: dose response, dilution V6, 5 day
row,SMILES,5 Day Visual Score V6
1,COc1ccc(CCN(C)c2nc(NCc3ccc(C(F)(F)F)cc3)ns2)cc1OC [compound 317],OK (no effect (˜1000+ progeny))

# Same assay, conditions: dose response, dilution V6, day 5
row,SMILES,5 Day Visual Score V6
1,CC(O)CN(CC(C)O)c1nc(NCc2ccc(C(F)(F)F)cc2)ns1 (centres unmarked) [compound 252],< (reduced broodsize (250-500 progeny))
2,C=CCN(CC=C)c1nc(N2CCN(c3c(C)cccc3C)CC2)ns1 [compound 232],OK (no effect (˜1000+ progeny))
